Consider nine compounds from US11479529B2, “Compounds with antimicrobial activity” (The Hong Kong Polytechnic University, priority 2018, dated 2022).

The structures appear in SMILES notation. In brackets after ≈: the same amount, converted by molar mass. Several values for one entry are separate records, joined by “and”; a condition that tells them apart may be missing. Identical values can stand only once.

One data set in a line: Cytotoxicity assay, A549. Format: cell-based, human. Conditions: human, A549 lung carcinoma cells. The procedure: (§1) Cytotoxicity assay was performed as detailed previously^43 except A549 lung carcinoma and HaCaT immortalized human keratinocytes were used in this study.
Data set [1] is described as follows: Cytotoxicity assay, HaCaT. Format: cell-based. Conditions: HaCaT immortalized human keratinocytes. The procedure: as §1
Data set [2] deals with community-acquired MRSA strain USA300. As to the kind of experiment: Microdilution assay (MIC) against community-acquired MRSA strain USA300. The format is cell-based. As to conditions: Staphylococcus aureus, read-out: minimum inhibitory concentration (MIC). The procedure: (§2) The antimicrobial activity of the seven compounds against community-acquired MRSA strain USA300 were first screened. […] With a molecular weight of 266.3, MC4 has been reported to be of use only to form a metal complex dye in optical layers for optical data recording.^26 The antimicrobial activities of MC4 against a panel of representative strains of pathogens were then tested.
(§3) Bacterial Strains and Chemicals. The following bacterial strains were used in this study for the microdilution assay: Enterococcus faecalis ATCC 29212, Klebsiella pneumonia ATCC 700603, Acinetobacter baumannii ATCC 19606, Pseudomonas aeruginosa PA01, Enterobacter cloacae ATCC 13047, E. coli ATCC 25922, Proteus vulgaris ATCC 6380, and S. aureus USA300, ATCC 25923, ATCC 29213, ST22, ST30, ST45, ST59, ST239, JE-2, BAA44. E. coli strain DH5a (Gibco BRL) was used in this study for cloning and BL21 (DE3) pLysS^23 was used for protein overproduction. 5-fluorouracil, rifampicin and other antibiotics used in the microdilution assay were purchased from SigmaAldrich. Compounds MC1-7 were purchased from MolPort.
(§4) Antibacterial activity test. Microdilution assay was performed according to the Clinical & Laboratory Standards Institute recommendations.^42 Serial 2-fold dilutions of the tested compounds and antibiotic controls were made from 256 μg/ml to 0.5 μg/ml. DMSO was included as a negative control.

Another data set has as its system S. aureus 25923. As to the kind of experiment: Microdilution assay (MIC) against control strain S. aureus 25923. Format: cell-based. Conditions: Staphylococcus aureus. The procedure: as §2, §3, §4
Data set [3] has as its system healthcare acquired MRSA ST239. As to the kind of experiment: Microdilution assay (MIC) against healthcare acquired MRSA ST239. The format is cell-based, Staphylococcus aureus. The procedure:
as §2, §3, §4

The subject of another data set is A549 lung carcinoma. As to the kind of experiment: Cytotoxicity assay, A549. The format is cell-based, human. As to conditions: mammalian cell lines (Table 1: A549, HaCaT), compared to 5-fluorouracil. The procedure: as §1
The test system of data set [4] is S. aureus ATCC 25923 cells. As to the kind of experiment: DNA, protein and rRNA quantitation in treated cells. As to conditions: one-quarter MIC, exponential growth, versus control cells. The format is cell-based, Staphylococcus aureus. The procedure: The level of macromolecules in S. aureus ATCC 25923 cells during exponential growth due to MC4 treatment were analyzed.
DNA, protein and rRNA quantitation. MC4, oxacillin and rifampicin at ¼ MIC level were added to S. aureus strain ATCC 25923 in LB medium at early log phase (OD595=0.2), which was then grown to mid-log phase (OD595==0.5). For DNA and protein quantitation, 1 ml cells were harvested and treated with 10 mg/ml lysozyme+0.5 mg/ml lysostaphin at RT for 1 hr before centrifugation at 13000 g/min for 3 min. The supernatant was discarded and cells lysed with 600 μl Nuclei Lysis Solution (Promega/Genomic DNA Purification Kit) for 5 min, followed by gentle sonication. The amount of DNA was quantified with Qubit dsDNA BR (broad range) and protein quantified with NanoOrange™ Protein Quantitation Kit (ThermoFisher). For rRNA quantitation, 1 ml culture was collected and treated with RNAProtect (Qiagen), before total RNA was extracted with an RNeasv Mini Kit (Qiagen). DNase I treatment was performed with a TURBO DNA-free Kit (ThermoFisher). The extracted RNA was subjected to Agilent 2100 analysis, and the level of major rRNA (the sum of 16S+23S rRNA) as percentage of total RNA. The values were compared across each treatment group. All experiments were repeated three times.

The next data set concerns the target T1, NusB-NusE interaction (Bacillus subtilis, UniProt P54520).
T1 construct: 6xHis (N); made in house; host or cells: E. coli BL21 (DE3) pLysS
As to the kind of experiment: ELISA-based inhibitory assay of NusB-NusE heterodimer formation. Conditions: NusB coated plate, GST-tagged NusE probe; read-out: IC50, inhibition of the NusB-NusE interaction. The format is binding, B. subtilis. The procedure: Finally, to establish MC4's mode of action at the molecular level, an enzyme-linked immunosorbant assay-based inhibitory assay was performed to assess the in vitro inhibition of NusB-NusE heterodimer formation by MC4.^24 Purified NusB was used to coat the 96-well plate, and GST-tagged NusE was used as the probe. […] With the change in the phenyl acetylene group to phenols, the IC50 values of the corresponding MC4 analogues increased, while deletion of this terminal triple bond or replacing by methyl or chloride caused a reduced IC50. When p-nitrophenol was modified to o-nitrophenol, the IC50 values increased, probably because of the involvement of the phenol group in the binding interaction with NusB Y81 (Table 3).
Protein overproduction and purification. B. subtilis NusB (wild type and mutant) and NusE-GST were overproduced from plasmids (Table 2) and purified using a similar approach to that described previously.^45 Purified proteins were dialyzed into 20 mM KH2PO4, 150 mM NaCl, 30% glycerol, pH 7.8 and stored at […].
ELISA-based assays. These assays were performed as described previously,^41 except NusB was used to coat the NUNC MaxiSorp™ 96-well plates and GST-tagged NusE used as the probe.

Data set [5] addresses T2, B. subtilis NusB wild type protein (Bacillus subtilis, UniProt P54520).
T2 construct: 6xHis (N); made in house; host or cells: E. coli BL21 (DE3) pLysS
As to the kind of experiment: Isothermal titration calorimetry, NusB wild type. The format is binding. Conditions: ITC. The procedure:
(§5) The interaction between MC4 and NusB was also biophysically quantified. […] Further experiments will be performed to resolve the structure of NusB in complex with MC4 for target validation, as well as structure-based lead optimization.
(§6) Isothermal calorimetric titration (ITC). ITC experiments were performed as described previously.^41 For compound testing, a 50 mM stock made up in DMSO was diluted to 500 μM in ITC buffer (50 mM KH2PO4, 150 mM NaCl, pH 7.4). All proteins were dialysed into ITC buffer and were supplemented with the same concentration of DMSO (1% v/v) to minimize buffer miss-match. MC4 was then titrated against 50 μM NusB wild type and mutants as described previously^41 using 1% DMSO in ITC buffer as the negative control.

The next data set addresses T3, NusE (Bacillus subtilis, UniProt P21471).
T3 construct: 3C protease site + GST (C); made in house; host or cells: E. coli BL21 (DE3) pLysS
As to the kind of experiment: Isothermal titration calorimetry, NusE. The format is binding, B. subtilis.

The subject of data set [6] is NusB variants (Y18A, D76A, and D81A). As to the kind of experiment: Isothermal titration calorimetry, NusB variants. Format: binding, B. subtilis. The procedure:
as §5, §6

T1 sequence (P54520 whole entry): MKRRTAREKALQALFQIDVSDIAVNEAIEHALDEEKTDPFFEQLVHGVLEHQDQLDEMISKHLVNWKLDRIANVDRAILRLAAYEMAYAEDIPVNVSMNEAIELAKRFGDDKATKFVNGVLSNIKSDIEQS
T2 sequence (P54520 whole entry): as above

In the case of `O=c1[nH]cc(F)c(=O)[nH]1` [5-fluorouracil, reference compound], the CC50 in “Cytotoxicity assay, A549” is 0.00562 ± 2e-06 µM; in data set [1], under 0.001 µM.
In the case of `C#Cc1cccc(/N=C/c2cc([N+](=O)[O-])ccc2O)c1` [MC4, (E)-2-[[(3-ethynylphenyl)imino]methyl]-4-nitrophenol], in [2], the MIC came out at 64 µg/mL (≈ 240 µM). In the data set on S. aureus 25923, the MIC amounted to 8 µg/mL (≈ 30 µM). The MIC in data set [3] came to 16 µg/mL (≈ 60.1 µM). The same compound had a CC50 in “Cytotoxicity assay, A549” of 183 ± 7.71 µM. In addition, the “cytotoxicity against mammalian cell lines” value with A549 lung carcinoma is “did not show significant cytotoxicity”. This compound also showed a CC50 in [1] of 695.1 ± 5.95 µM. Besides, in [4], the DNA level result is “none of the treatment affected the DNA level”, the protein level entry is given as “significant reduction in the protein level” and the “rRNA level (16S+23S)” value was “significant reduction in the rRNA level”. For the same compound, the IC50 on NusB-NusE interaction was ~34.7 µM and 34.7 µM. Moreover, in data set [5], the N came to 0.988±0.076, the ΔH is -7.141 ± 0.9398 kcal/mol and the ΔS is −1.81 cal/mol/deg. For the same compound, the Kd in data set [5] (one-site binding mode) came out at 1.45 ± 0.55 µM. Also, at NusE, the “Binding to NusE by ITC” value was “could not be detected”. Also, the “Binding to NusB variants by ITC” value in data set [6] is given as “could not be detected”.
With `O=[N+]([O-])c1cccc(/C=N/c2ccccc2)c1O` [MC4-1, 2-nitro-6-[(E)-(phenylimino)methyl]phenol], the IC50 at NusB-NusE interaction amounted to 14.4 ± 2.59 µM.
Same read-out and setting: the same measure for `O=[N+]([O-])c1ccc(O)c(C=Nc2ccccc2)c1` [MC4-4, 4-nitro-2-[(phenylimino)methyl]phenol]: 147 ± 17.9 µM; for `Cc1cccc(/N=C/c2cc([N+](=O)[O-])ccc2O)c1` [MC4-5, 2-{(E)-[(3-methylphenyl)imino]methyl}-4-nitrophenol]: 971 ± 11.6 µM.
On to `O=[N+]([O-])c1ccc(O)c(/C=N/c2ccc(O)cc2)c1` [MC4-6, 2-{(E)-[(4-hydroxyphenyl)imino]methyl}-4-nitrophenol], for which the IC50 on NusB-NusE interaction was 0.00815 µM.
Still for that read-out and setting: the same measure for `O=[N+]([O-])c1ccc(O)c(/C=N/c2ccc(Cl)cc2)c1` [MC4-7, 2-{(E)-[(4-chlorophenyl)imino]methyl}-4-nitrophenol]: 1639 ± 12.7 µM; for `O=[N+]([O-])c1ccc(O)c(/C=N/c2cccc(O)c2)c1` [MC4-8, 2-{(E)[(3-hydroxyphenyl)imino]methyl}-4-nitrophenol]: 0.00692 µM.
Consider `Cc1onc(-c2ccccc2)c1C(=O)N[C@@H]1C(=O)N2[C@@H]1SC(C)(C)[C@@H]2C(=O)O` [oxacillin, reference compound], for which, in data set [4], the DNA level result is “none of the treatment affected the DNA level”, the protein level entry was “slightly higher than those of control cells” and the “rRNA level (16S+23S)” value is reported as “slightly higher than those of control cells”.
